Here are results for five molecules from patent publication US8663651B2, “T-140 peptide analogs having CXCR4 super-agonist activity for immunomodulation” (Biokine Therapeutics Ltd., priority 2006, dated 2014).

Square brackets hold non-standard residues; d marks the D form. * marks the point of attachment. Benzoyl(4-F) = O=C(c1ccc(F)cc1)*; Cit = NC(=O)NCCC[C@H](N)C(=O)O

What all share (assay type): cell-based, human
One data set concerns PC3 cells. Briefly: MIP3α secretion by PC3 cells, assessed by ELISA. As for the experimental part:
(§1) In this example, regulation of the chemokine MIP3α (macrophage inflammatory protein 3α) was examined. […] In FIG. 1B, PC3 (left panel) and PC3-CXCR4.5 (right panel) cells were stimulated with the indicated concentrations of CXCL12 for 48 hours and MIP3α secretion was assessed by ELISA. The results represent the average of triplicates±STDEV.
(§2) The effects of the CXCR4 antagonist AMD3100 and of 4F-benzoyl-TN14003 (4FB-TN14003), hitherto known as a CXCR4 antagonist, on MIP3α secretion were further tested. […] In FIG. 1C, CXCR4 signaling in PC3 (left panel) and PC3-CXCR4.5 (right panel) cells was inhibited with anti-CXCL12 antibodies (αCXCL12) and Pertussis toxin (PTX) treatments alone or in combination with CXCL12, as indicated. Secretion of MIP3α was assessed by ELISA. The results represent the average of triplicates±STDEV.
(In general: In an ELISA, binding on a coated surface is turned into a signal by an enzyme label.)

For a further data set, the system named is PC3-CXCR4.5 cells. The data set can be described thus: MIP3α secretion by PC3-CXCR4.5 cells (CXCR4-overexpressing clone), assessed by ELISA. To be noted: for induced MIP3α secretion after silencing of CXCR4 expression: CXCL12 500 ng/ml or 4F-benzoyl-TN14003 8 μM for additional 48 hours. As for the experimental part:
as §1, §2
(§3) The Dicer-substrate siRNA duplexes of CXCR4 (NCBI accession number NM 003467): sense 5′-[…]-3′ (SEQ ID NO:78), antisense 5′ […]-3′ (SEQ ID NO:79) were purchased from IDT, Coralville, Iowa. The non-specific siRNA duplexes were used as a control. PC3-CXCR4.5 cells were transfected with 200 nmol/L siRNA in serum-free medium using Oligofectamine reagent (Invitrogen, Carlsbad, Calif., USA), according to the manufacturer's instructions. To determine the efficiency of CXCR4RNA interference, at 48 hours post-transfection, the cells were analyzed for CXCR4 expression on mRNA and cell-surface levels.
In FIG. 2C, control (gray) and CXCR4 (black) siRNA-transfected PC3-CXCR4.5 cells at 48 hours post-transfection were incubated with CXCL12 500 ng/ml and 4F-benzoyl-TN14003 8 μM (4FB-TN14003) for additional 48 hours. MIP3α secretion was assessed by ELISA. The results represent the average of triplicates±STDEV.

For a further data set, the system named is HL-60. Briefly: MIP3α secretion by HL-60 cells, ELISA. The following applies: following stimulation. Here is the method:
(§4) The expression of MIP3α in a range of carcinoma cell lines and normal epithelial cells was tested by ELISA. […] Bone marrow endothelial cells, BMEC, glioblastoma cells U87, breast carcinoma cells MDA231, also were negative for MIP3α secretion. […] In addition, MIP3α was also secreted by normal keratinocytes (FIG. 4D) and primary blasts from peripheral blood of patients with AML (FIG. 4C). In FIG. 4, acute promyelocytic leukemia cell lines NB4 (FIG. 4A) and HL60 (FIG. 4B), primary peripheral blasts from the patient with acute myelocytic leukemia (FIG. 4C) and normal keratinocytes (FIG. 4D) were stimulated with the indicated concentration of CXCL12 for 48 hours. The secretion of MIP3α was assayed by ELISA. The results of experiments with NB4, HL60 and keratinocytes represent the average of triplicates±STDEV. […] Secretion of MIP3α was assessed by ELISA. […] The results represent the average of triplicates±STDEV.

A further data set concerns NB4. Briefly: MIP3α secretion by NB4 cells, ELISA. To be noted: following stimulation. As for the experimental part:
as §4

In the next data set the test system is normal keratinocytes. The data set can be described thus: MIP3α secretion by normal keratinocytes, ELISA. The following applies: following stimulation. As for the experimental part:
as §4

For the next data set, the system named is CXCR4. The data set can be described thus: CXCR4 silencing by siRNA in PC3-CXCR4.5 cells (RT-PCR and FACS). The following applies: 200 nmol/L siRNA, 48 hours post-transfection. Here is the method: as §3
In FIG. 2A, PC3-CXCR4.5 cells 48 hours following the transfection with CXCR4-specific siRNA were stained for the control and CXCR4 antibodies and evaluated by FACS. Left panel, non-transfected cells; middle panel, cells transfected with a control (non-specific) siRNA; right panel, cells transfected with a siRNA directed to CXCR4 (CXCR4 siRNA). Cells were stained for the control (IgG2a-PE, full histograms) and CXCR4 antibodies (IgG2a-12G5, empty histograms).
In FIG. 2B, RT-PCR analysis of CXCR4 of the siRNA-transfected PC3-CXCR4.5 cells 48 hours following the transfection is presented. […] Gene expression was determined using primers specific to CXCR4, or to the housekeeping gene β-actin as a control. […]

[1] abbreviates: CXCR4 siRNA-transfected PC3-CXCR4.5 cells.

Regarding “4F-benzoyl-Arg-Arg-Nal-Cys-Tyr-Cit-Lys-DLys-Pro-Tyr-Arg-Cit-Cys-Arg-NH2 ({Benzoyl(4-F)}-RR[Nal]CY[Cit]K[dK]PYR[Cit]CR-NH2; cysteine pairing not given here) [4F-benzoyl-TN14003]”, the “induction of MIP3α secretion in an agonist manner” value with PC3 cells (PC3 cells) and in the data set with PC3-CXCR4.5 cells (PC3-CXCR4.5 cells) was “induced in both cell lines MIP3α secretion in an agonist manner” throughout. Also, in the data set with PC3-CXCR4.5 cells (setting [1]), the “induced MIP3α secretion after silencing of CXCR4 expression” value is “inhibited”. The “mode of action on CXCR4” value in the data set on PC3-CXCR4.5 cells (concluded from CXCR4-dependent MIP3α secretion in PC3-CXCR4.5 cells) is “super agonist for CXCR4”. In addition, the MIP3α secretion entry in the data set with HL-60, in the data set on NB4 and with normal keratinocytes was “increased” throughout.

In the case of `c1cc(CN2CCCNCCNCCCNCC2)ccc1CN1CCCNCCNCCCNCC1` [AMD3100, reference compound], in the data set with PC3-CXCR4.5 cells (PC3-CXCR4.5 cells), the “induction of MIP3α secretion in an agonist manner” value is “but not AMD3100 induced”.

As for “CXCL12: chemokine, CXCR4's only natural ligand”, the MIP3α secretion entry in the data set on PC3 cells (PC3 cells stimulated with increasing doses of CXCL12 for 48 hours) is “increased the secretion of MIP3α”; with PC3-CXCR4.5 cells (PC3-CXCR4.5 cells stimulated with increasing doses of CXCL12 for 48 hours), “increased the secretion of MIP3α”; in the data set on HL-60 it was “increased”; in the data set with NB4 it was “increased”; in the data set on normal keratinocytes, “increased”. The “extent of MIP3α secretion induction compared with 4F-benzoyl-TN14003” value in the data set with PC3-CXCR4.5 cells (CXCR4-expressing cell lines (general statement)) is listed as “to a lesser extent than 4F-benzoyl-TN14003”. The “induced MIP3α secretion after silencing of CXCR4 expression” value with PC3-CXCR4.5 cells (setting [1]) is recorded as “inhibited”.

As for Pertussis toxin [reference compound], the MIP3α secretion result in the data set on PC3 cells (PC3 cells, treatment alone or in combination with CXCL12) is given as “effectively inhibited the secretion of MIP3α”; in the data set on PC3-CXCR4.5 cells (PC3-CXCR4.5 cells, in combination with CXCL12), “did not demonstrate an inhibitory effect on the level of MIP3α”; with PC3-CXCR4.5 cells (PC3-CXCR4.5 cells, treatment alone), “secretion of MIP3α was decreased”.

Turning to “siRNA specific for CXCR4: Dicer-substrate siRNA duplexes of CXCR4 (SEQ ID NO:78 sense, SEQ ID NO:79 antisense), purchased from IDT (sense UAAAAUCUUCCUGCCCACCAUCUAC; antisense GUAGAUGGUGGGCAGGAAGAUUUUAUU; Dicer-substrate duplex, purchased, chemistry not given here) [reference compound]”, the “spontaneous MIP3α secretion after silencing of CXCR4 expression” value in the data set with PC3-CXCR4.5 cells (setting [1]) is reported as “inhibited the spontaneous”. The “CXCR4 mRNA and cell surface expression” value in the data set on CXCR4 is “reduced CXCR4 mRNA and cell surface expression”.
